Experimental data published in ChEMBL document CHEMBL1201862, “PubChem BioAssay data set” (2004).
Blank lines part the entries; values can stand above or below the molecule they belong to. The source made the active and inactive calls.

Tests used:
[1] = human group III sPLA2 inhibitors, dose response, biochemical, QFRET, IC50 (AID 743457);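 note: green fluorescence rise as the enzyme cleaves BODIPY PC-A2 in liposomes; potency for inhibition of the enzyme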
[2] = cells; assay type: functional, cell-based
[3] = target: T1, Trace amine-associated receptor 1 (Homo sapiens, UniProt Q96RJ0); assay: Fluorescence-based cell-based high throughput dose response assay to identify agonists of the human trace amine associated receptor 1 (TAAR1).; assay type: functional
T1 sequence (Q96RJ0 whole entry): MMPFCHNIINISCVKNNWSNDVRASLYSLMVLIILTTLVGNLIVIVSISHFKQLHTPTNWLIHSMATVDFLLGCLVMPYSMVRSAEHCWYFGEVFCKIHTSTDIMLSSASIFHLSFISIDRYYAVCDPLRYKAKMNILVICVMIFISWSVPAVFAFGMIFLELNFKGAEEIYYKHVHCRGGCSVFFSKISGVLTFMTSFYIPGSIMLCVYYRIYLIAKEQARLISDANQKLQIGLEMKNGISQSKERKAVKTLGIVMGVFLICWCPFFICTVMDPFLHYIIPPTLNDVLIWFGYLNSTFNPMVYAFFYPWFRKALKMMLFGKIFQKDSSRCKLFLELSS

[4] = target: T1, Trace amine-associated receptor 1; assay: Counterscreen for agonists of the human trace amine associated receptor 1 (hTAAR1): Fluorescence-based cell-based high throughput dose response assay to identify hTAAR1 agonist that also desensitize TAAR1 receptor response.; assay type: functional
[5] = cells; assay type: functional, cell-based; remark: listed apart in the source
[6] = target: COUP transcription factor 2 (Homo sapiens, UniProt P24468); assay: Luminescence-based cell-based high throughput dose response assay to identify inhibitors of COUP-TFII (NR2F2).; assay type: functional;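 note: HEK293 cells transiently cotransfected with COUP-TFII expression vector and reporter; luciferase reporter luminescence driven by COUP-TFII from the pX2-168 reporter plasmid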
[7] = target: T2, Sentrin-specific protease 1 (Homo sapiens, UniProt Q9P0U3); assay: potency of human SENP1 inhibitors, dose response, biochemical, kinetic FRET (AID 651697); assay type: functional; details: read-out: IC50_Mean
T2 sequence (Q9P0U3 whole entry): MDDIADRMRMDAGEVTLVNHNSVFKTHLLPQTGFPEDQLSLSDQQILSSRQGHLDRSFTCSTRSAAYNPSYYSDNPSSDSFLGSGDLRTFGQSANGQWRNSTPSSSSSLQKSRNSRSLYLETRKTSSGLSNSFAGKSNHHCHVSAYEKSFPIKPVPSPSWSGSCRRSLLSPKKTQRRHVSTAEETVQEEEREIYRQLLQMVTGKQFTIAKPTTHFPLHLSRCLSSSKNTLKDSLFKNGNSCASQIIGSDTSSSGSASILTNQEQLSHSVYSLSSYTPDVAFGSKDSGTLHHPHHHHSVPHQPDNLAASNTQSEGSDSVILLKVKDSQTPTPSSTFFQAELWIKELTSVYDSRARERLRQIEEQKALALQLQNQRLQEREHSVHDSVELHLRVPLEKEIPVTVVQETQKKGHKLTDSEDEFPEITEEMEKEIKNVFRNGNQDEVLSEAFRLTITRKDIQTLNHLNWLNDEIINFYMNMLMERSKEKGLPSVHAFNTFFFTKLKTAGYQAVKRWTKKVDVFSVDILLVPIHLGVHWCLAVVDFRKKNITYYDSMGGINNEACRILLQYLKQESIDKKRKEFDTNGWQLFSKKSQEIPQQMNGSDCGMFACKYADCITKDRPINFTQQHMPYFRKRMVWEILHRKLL

[8] = target: T2, Sentrin-specific protease 1; assay: Dose response confirmation of small molecule inhibitors of the catalytic domain of the SUMO protease, SENP1 in a FRET assay.; assay type: functional; details: read-out: IC50_Mean
[9] = target: Dual specificity tyrosine-phosphorylation-regulated kinase 1A (Rattus norvegicus, UniProt Q63470); assay type: biochemical, Homo sapiens
[10] = target: Galanin receptor type 3 (Homo sapiens, UniProt O60755); assay: Fluorescence-based cell-based primary high throughput dose response assay to identify antagonists of the Galanin Receptor 3 (GalR3).; assay type: functional
[11] = cells; assay type: functional, cell-based; details: HEK-CNG
[12] = inhibitors of PGC1a acetylation in cells, dose response, cell-based, cherry-picked samples (AID 720514); assay type: functional;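 note: potency may reflect raised or lowered acetylation signal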
[13] = P. falciparum 3D7-ScDHODH growth inhibitors, dose response, SYBR Green, dry powder samples (AID 1159570); assay type: functional, cell-based;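 note: parasite growth measured after 72 hours of compound exposure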
[14] = HepG2 cell cytotoxicity, dose response, cytotoxicity control, plate reader, dry powder samples (AID 1159569); assay type: functional, cell-based;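 note: inhibitor potency with signal falling toward the positive control level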
[15] = P. falciparum Dd2 growth inhibitors, dose response, SYBR Green, cherry-picked samples (AID 1159567); assay type: functional, cell-based
[16] = P. falciparum Dd2 growth inhibitors, dose response, SYBR Green, dry powder samples (AID 1159566); assay type: functional, cell-based;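 note: potency for growth inhibition with lower SYBR green DNA signal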
[17] = P. falciparum ATP4 D1247Y mutant growth inhibitors, dose response, NITD609-resistant line, SYBR Green, dry powder (AID 1159571); assay type: functional, cell-based;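 note: parasites synchronized at ring stage by sorbitol before testing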

Sequence of Galanin receptor type 3 (O60755 whole entry): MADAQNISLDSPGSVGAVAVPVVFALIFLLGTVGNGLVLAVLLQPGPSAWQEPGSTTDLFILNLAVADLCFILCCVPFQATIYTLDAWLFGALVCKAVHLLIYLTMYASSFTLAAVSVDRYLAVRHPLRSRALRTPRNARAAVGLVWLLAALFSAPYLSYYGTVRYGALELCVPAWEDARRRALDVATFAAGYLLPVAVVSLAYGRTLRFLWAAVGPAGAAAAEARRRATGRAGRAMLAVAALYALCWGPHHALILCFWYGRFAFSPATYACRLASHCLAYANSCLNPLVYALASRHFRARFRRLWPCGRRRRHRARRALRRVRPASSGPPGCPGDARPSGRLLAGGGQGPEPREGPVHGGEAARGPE
Sequence of COUP transcription factor 2 (P24468 whole entry): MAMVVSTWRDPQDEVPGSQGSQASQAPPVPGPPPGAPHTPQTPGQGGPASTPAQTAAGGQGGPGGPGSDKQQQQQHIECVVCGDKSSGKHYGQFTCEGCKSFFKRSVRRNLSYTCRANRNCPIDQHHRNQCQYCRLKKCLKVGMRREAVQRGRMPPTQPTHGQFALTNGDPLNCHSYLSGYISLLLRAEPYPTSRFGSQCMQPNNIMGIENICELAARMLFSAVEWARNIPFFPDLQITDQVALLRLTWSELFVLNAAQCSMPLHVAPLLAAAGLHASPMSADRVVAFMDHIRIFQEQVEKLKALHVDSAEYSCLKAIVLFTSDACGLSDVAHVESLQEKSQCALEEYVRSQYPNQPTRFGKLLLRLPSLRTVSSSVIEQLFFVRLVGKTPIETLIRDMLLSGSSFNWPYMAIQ

IC50 [1]: > 122 µM (inactive)
Structure (SMILES): CC(C)Cc1c(C#N)c(S)nc2c1CCCC2

Structure (SMILES): O=C(O)/C=C/C(=O)NCCc1ccccc1
IC50 [2]: > 29.9 µM (inactive)
EC50 [3]: 0.153 µM (active)
IC50 [4]: 1.19 µM (active)
EC50 [5]: > 29.9 µM (inactive)

IC50 [6]: 6.11 µM (active)
Structure (SMILES): CC1Cc2cc(-c3csc(NC(=O)Cc4ccccc4)n3)ccc2N1S(C)(=O)=O (centres undefined)

IC50 [7]: 8.19 µM (active)
IC50 [8]: 10.4 µM (active)
Structure (SMILES): CCC(=NN=C(CC)c1ccccc1O)c1ccccc1O

AC50 [9]: 8.94 µM (active)
IC50 [7]: 14.7 µM (active)
IC50 [8]: 2.57 µM (active)
Structure (SMILES): O=C1NC(=S)SC1=Cc1cc(Br)ccc1O

Structure (SMILES): CCCCC[C@@H](/C=C/C1C(=O)C=C[C@H]1C/C=C\CCCC(=O)O)OC(C)=O (some centres undefined)
IC50 [10]: 1.09 µM (active)
EC50 [11]: > 29.9 µM (inactive)

Structure (SMILES): CO[C@@H]1CN(C)C(=O)c2cc(NC(C)=O)ccc2OC[C@@H](C)N(Cc2ccccc2C(=O)O)C[C@@H]1C
AC50 [12]: 23.6 µM (active)

Structure (SMILES): COc1cccc(CN(C)C[C@H]2OCc3ccccc3-c3c(n(C)c4ccccc34)C(=O)N([C@H](C)CO)C[C@@H]2C)c1
AC50 [13]: 3.29 µM (active)
AC50 [14]: 20.6 µM (active)
AC50 [15]: 2.76 µM (active)
AC50 [16]: 2.87 µM (active)
AC50 [17]: 3.55 µM (active)

Structure (SMILES): O=C(c1ccc(F)cc1)N1CC(=O)N2[C@H](CO)[C@H](c3ccc(-c4cccnc4)cc3)[C@H]2C1
AC50 [13]: 1.2 µM (active)
AC50 [14]: > 100 µM (inactive)
AC50 [15]: 0.821 µM (active)
AC50 [16]: 0.964 µM (active)
AC50 [17]: 1.27 µM (active)
